Earlier results on three substances are cited in patent publication US7569547B2, “Inhibiting furin with polybasic peptides” (Board of Supervisors of Louisiana State University and …, priority 2001, dated 2009).

No end group written: not given here.

Data set [1] concerns the target T1, furin (Homo sapiens, UniProt P09958). As to conditions: Lu et al. 1993; cited from earlier work.
The target of data set [2] is T1, furin. As to conditions: literature; read-out: Ki against furin; cited from earlier work.
For data set [3], the target named is T2, PC7 (Homo sapiens, UniProt Q16549).
T2 sequence (Q16549 142-785): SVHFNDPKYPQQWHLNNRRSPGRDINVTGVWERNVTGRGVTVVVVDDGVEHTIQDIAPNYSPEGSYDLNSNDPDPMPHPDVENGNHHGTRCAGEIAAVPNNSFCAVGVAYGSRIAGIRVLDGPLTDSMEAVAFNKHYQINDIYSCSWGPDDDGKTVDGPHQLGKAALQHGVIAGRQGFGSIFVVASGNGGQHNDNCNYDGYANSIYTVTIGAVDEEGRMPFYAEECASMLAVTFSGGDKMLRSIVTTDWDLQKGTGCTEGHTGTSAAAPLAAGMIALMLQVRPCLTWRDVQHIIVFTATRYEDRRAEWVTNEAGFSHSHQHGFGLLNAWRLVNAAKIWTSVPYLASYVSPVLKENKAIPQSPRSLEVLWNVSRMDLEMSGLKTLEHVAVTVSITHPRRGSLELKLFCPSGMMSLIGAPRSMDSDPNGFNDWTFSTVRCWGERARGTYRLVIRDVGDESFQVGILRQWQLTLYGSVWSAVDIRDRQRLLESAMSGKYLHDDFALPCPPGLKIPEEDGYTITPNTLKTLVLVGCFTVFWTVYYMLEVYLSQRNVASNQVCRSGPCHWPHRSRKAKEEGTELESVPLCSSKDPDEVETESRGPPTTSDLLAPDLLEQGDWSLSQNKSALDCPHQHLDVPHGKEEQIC
The note with it: Zhong et al. 1999; read-out: Ki against PC7; cited from earlier work.

T1 sequence (P09958 108-794): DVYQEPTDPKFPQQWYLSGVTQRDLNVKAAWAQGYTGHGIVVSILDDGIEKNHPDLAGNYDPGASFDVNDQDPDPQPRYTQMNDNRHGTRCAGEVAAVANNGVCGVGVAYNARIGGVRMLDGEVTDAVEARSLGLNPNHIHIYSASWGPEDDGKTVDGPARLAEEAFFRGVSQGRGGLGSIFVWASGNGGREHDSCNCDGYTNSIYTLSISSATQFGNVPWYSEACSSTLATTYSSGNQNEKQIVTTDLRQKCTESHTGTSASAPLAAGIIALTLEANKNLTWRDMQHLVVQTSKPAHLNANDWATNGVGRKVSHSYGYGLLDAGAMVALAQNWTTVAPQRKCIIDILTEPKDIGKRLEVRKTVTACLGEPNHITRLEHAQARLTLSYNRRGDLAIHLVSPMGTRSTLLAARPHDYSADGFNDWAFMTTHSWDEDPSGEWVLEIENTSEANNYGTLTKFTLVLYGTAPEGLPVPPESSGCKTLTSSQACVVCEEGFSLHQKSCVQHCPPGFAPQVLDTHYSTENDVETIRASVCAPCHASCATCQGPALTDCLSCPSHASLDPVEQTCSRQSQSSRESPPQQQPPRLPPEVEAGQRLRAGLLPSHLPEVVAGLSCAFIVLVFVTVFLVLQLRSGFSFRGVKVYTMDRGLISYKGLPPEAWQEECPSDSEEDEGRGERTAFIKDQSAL

For “Arg^15-Lys^17-Arg^18 turkey ovomucoid third domain: third domain of turkey ovomucoid engineered (KPACTLE^19→KPRCKRE^19) to increase specificity towards furin (not fully specified; ends and bridges not checked)”, in data set [1], the equilibrium constant was 1.1e+07 M⁻¹.
As usually defined, the Ki is the dissociation constant of the complex between target and ligand, obtained from inhibition or displacement. EQRLLKRAKR: the Ki was 80 nM in data set [2] and 6 nM in data set [3].
QQVAKRRTKR: the Ki in data set [3] was roughly 500 nM.
